Test results reported in patent US20180264134A1, “A COMPOSITION OF GOLD NANOPARTICLES HAVING ANTIMICROBIAL PEPTIDES BOUND ON THEIR SURFACE FOR USE THE TREATMENT OF WOUND HEALING OR IN THE TREATMENT OF ISCHEMIC OR VASCULAR DISEASES OR IN THE TREATMENT OF SKIN DISORDERS” (priority 2015, published 2018).
Entries after “also recorded” stand apart in the source; their conditions may differ.

Columns and labels:
[1] = tested on: HUVECs; experiment: VEGF secretion in HUVECs (ELISA); format: cell-based, human; conditions: 24 h, LL37 5 μg/mL, NPs 200 μg/mL
Experimental: In an embodiment measurement of VEGF amount in HUVECs can be perform by the following method: HUVECs were seeded at a density of 4×10^4 cells/cm^2 in 24-well plates and cultured for 24 h in EGM-2 without VEGF. LL-37 (5 μg/mL), LL37 AUNPs and AuNPs (200 μg/mL) suspended in culture medium without VEGF at different concentrations were added to cells. LL-37 (5 μg/mL) and LL-37 AUNPs (200 μg/mL) were also incubated in the presence of 10 μM of FPRL1 Antagonist. After 24 h of incubation, cell media from all the conditions were collected and used to quantify VEGF amount in supernatants. In order to calculate the amount of VEGF in supernatants, Human VEGF ELISA development Kit (PeproTech) was used according to the manufacture's instructions. A calibration curve was used for the ranging between 0-1000 pg/mL VEGF.

[2] = tested on: HaCaT cells; experiment: Scratch assay in HaCaT; format: cell-based, human
Experimental: Scratch Assay in HaCaT. HaCaT cells (passage 35-40) were seeded at a density of 2×10^4 cells/well in fibronectin-coated 96-well plate in DMEM supplemented with 1% (v/v) penicillin and streptomycin and 10% (v/v) FBS. After 48 h, cells were firstly starved for 15 h in DMEM with 0.5% FBS and then incubated with LL-37 (1 μg/mL), LL-37 AUNPs and AUNPs (200 μg/mL) for 5 h at 37° C. and 5% CO2. All the chemical inhibitors for FPRL1, EGFR, ADAM17 and Purinergic receptor were added into cells 1 hour before and for all the incubation time with LL37, LL37-Au NPs or AuNPs. After treatments, cells were washed twice with PBS to remove non-internalized NPs and a scratch was created with a sterile pipet tip. The detached cells were washed twice with PBS and then plates were re-coated with fibronectin (10 μg/mL in starvation medium) for 1 hour at 37° C. At this point (t=0), the first images were taken on In Cell Microscope 2000 (GE Healthcare) (objective 2×). Then cells were washed and maintained in starvation medium up to 72 h. During this time, cell migration was monitored and more images were taken up to 72 h. Scratch areas were quantified using the AxioVision software (Carl Zeiss). Wound areas were normalized by the initial area (n=8 images). On the other hand, to test the prolonged effect of LL37-Au NPs on HaCaT migration, cells were plated in fibronectin-coated 24-well plate (2×10^5 cells/well), after 48 h cells were starved for 15 h in DMEM with 0.5% FBS and then the scratch was made with a sterile pipet tip. Only after the cells were incubated with LL-37 (1 μg/mL), LL37-Au NPs and AuNPs (15 μg/mL) in starvation medium up to 96 h. During this time, cell migration was monitored and images were taken and scratch area quantified.
In an embodiment, the NP bioactivity was carried out by scratch assay. Keratinocytes (passage 35-40) were seeded at a density of 2×10^4 cells/well in fibronectin-coated 96-well plate in DMEM supplemented with 1% (v/v) penicillin and streptomycin and 10% (v/v) FBS. After 48 h, cells were initially starved for 15 h in DMEM with 0.5% FBS, inactivated with mitomycin (5 μg/mL) for 2 h, and then incubated with LL37 (1 μg/mL), LL37-Au NPs or Au NPs (both at 200 μg/mL) for 5 h at 37° C. and 5% CO2. In case of chemical inhibition, the chemical inhibitors for FPRL1 (WRW4, Calbiochem, 10 μM), EGFR (Erlotinib HCL, OSI-744, Selleck Chemicals, 2 nM), ADAM17 (Marimastat, Sigma, 10 μM), P2X (PPADS, Sigma, 100 μM), for P2X7 (A-740003, Sigma, at a concentration of 500 nM), were added to the cells 1 h before the incubation with LL37 peptide and LL37-Au NPs and then maintained during the assay. […] After the 5 h treatment, cells were washed twice with PBS to remove non-internalized NPs and a scratch was created with a sterile pipette tip. The detached cells were washed twice with PBS and then plates were re-coated with fibronectin (10 μg/mL in starvation medium) for 1 h at 37° C. Cells were washed and maintained in starvation medium up to 72 h. Cell migration was monitored overtime by a in Cell Microscope 2000 (GE Healthcare) (objective 2×). The cells treated with LL37 peptide were cultured with starvation medium containing LL37 for the entire duration of the experiment. Scratch areas were quantified using the AxioVision software (Carl Zeiss). Wound areas were normalized by the initial area (n=6 images). In case of siRNA knock-down studies, on-target plus human ADAM17 siRNA or P2X7R siRNA (both from Dharmacon) were used to silence ADAM17 or P2X7 before performing the scratch assay. Keratinocytes were transfected with 50 nM siRNA using 0.25 μL of Lipofectamine RNAiMAX (Life Technologies) for 24 h in antibiotic-free complete medium before starting the scratch assay. […]

[3] = tested on: venous leg ulcers; conditions: cited from earlier work
[4] = tested on: EGFR; experiment: EGFR phosphorylation in HaCaT (ELISA); format: cell-based, human; conditions: LL37 5 μg/mL; LL37-Au NPs 15 or 200 μg/mL
Experimental: In an embodiment the detection of EGFR and ERK1/2 phosphorylation, can be perform by: the activation of EGFR receptor in HaCaT (80% confluency, in 6-well plates) was induced by starving the cells for 24 h in DMEM supplemented with 1% (v/v) penicillin and adding soluble LL37, LL37-Au NPs and Au NPs for a given period of time. Following treatment, the plates were immersed in ice and the medium was discarded. Then the proteins were isolated from the cells . . . . The levels of EGFR (phosphorylated EGFR and total EGFR) were determined by ELISA kit (R&D Systems). The activation of ERK signaling pathways in HaCaT (80% confluency, in one 96-well cell culture clear-bottom black microplate) were obtained starving the cells for 24 h in DMEM supplemented with 1% (v/v) penicillin and then stimulating them with soluble LL37 (5 μg/mL), LL37-Au NPs and Au NPs (200 μg/mL). After treatments the level of ERK were determined using a phosphoprotein and total protein ELISA kit (R&D Systems ref. KCB1018) according to the manufacture's instructions. Data were acquired with a BioTek synergy MX microplate reader.

CC[C@H](C)[C@H](NC(=O)[C@H](CCCCN)NC(=O)[C@H](CCC(=O)O)NC(=O)[C@H](CCCCN)NC(=O)[C@H](CO)NC(=O)[C@H](CCCCN)NC(=O)[C@H](CCCNC(=N)N)NC(=O)[C@H](Cc1ccccc1)NC(=O)[C@H](Cc1ccccc1)NC(=O)[C@H](CC(=O)O)NC(=O)CNC(=O)[C@H](CC(C)C)NC(=O)[C@@H](N)CC(C)C)C(=O)NCC(=O)N[C@@H](CCCCN)C(=O)N[C@@H](CCC(=O)O)C(=O)N[C@@H](Cc1ccccc1)C(=O)N[C@@H](CCCCN)C(=O)N[C@@H](CCCNC(=N)N)C(=O)N[C@H](C(=O)N[C@H](C(=O)N[C@@H](CCC(N)=O)C(=O)N[C@@H](CCCNC(=N)N)C(=O)N[C@H](C(=O)N[C@@H](CCCCN)C(=O)N[C@@H](CC(=O)O)C(=O)N[C@@H](Cc1ccccc1)C(=O)N[C@@H](CC(C)C)C(=O)N[C@@H](CCCNC(=N)N)C(=O)N[C@@H](CC(N)=O)C(=O)N[C@@H](CC(C)C)C(=O)N[C@H](C(=O)N1CCC[C@H]1C(=O)N[C@@H](CCCNC(=N)N)C(=O)N[C@H](C(=O)N[C@@H](CCC(=O)O)C(=O)N[C@@H](CO)C(=O)N[C@@H](CS)C(N)=O)[C@@H](C)O)C(C)C)[C@@H](C)CC)C(C)C)[C@@H](C)CC [LL37]
secretion of VEGF165 [1]: induce the secretion | effect of P2X7 antagonist A-740003 on migration ([2]; A-740003 500 nM): inhibited; also recorded: significant decrease | effect of EGFR inhibitor Erlotinib on migration ([2]; Erlotinib 2 nM): decreased significantly | migration of keratinocytes ([2]; LL37 1 μg/mL, NPs 200 μg/mL, listed as LL37 peptide): induced the migration; also recorded: induce the migratory properties | effect of ADAM inhibitor Marimastat on migration ([2]; Marimastat 10 μM): significantly decreased; also recorded: significant decrease | effect of purinergic antagonist PPADS on migration ([2]; PPADS 100 μM): inhibited; also recorded: significant decrease | effect of FPRL-1 antagonist WRW4 on migration ([2]; WRW4 10 μM): no measurable effect | effect of ADAM17 siRNA knockdown on migration ([2]; siRNA ADAM17): decreased the migratory properties; also recorded: reduced migratory effect | effect of P2X7 siRNA knockdown on migration ([2]; siRNA P2X7): inhibited; also recorded: reduced migratory effect | primary safety and tolerability end-point ([3]; patients with venous leg ulcers): met | healing rate compared with placebo ([3]; twice per week, 0.5 mg/mL): statistically significant improved healing rate | persistence of EGFR phosphorylation [4]: 10 min | time of peak EGFR phosphorylation [4]: 8 min
